Measurements from ChEMBL document CHEMBL1201862, “PubChem BioAssay data set” (2004).
Active and inactive are the calls of the source.

Legend:
[1] = target: 1-phosphatidylinositol 4,5-bisphosphate phosphodiesterase gamma-1 (Homo sapiens, UniProt P19174); assay: Counterscreen for inhibitors of phospholipase C isozymes (PLC-B3): Fluorescence-based biochemical high throughput dose response assay to identify inhibitors of phospholipase C isozymes (PLC-gamma1).
[2] = target: T1, Apoptotic protease-activating factor 1 (Homo sapiens, UniProt O14727); type: functional
T1 sequence (O14727 whole entry): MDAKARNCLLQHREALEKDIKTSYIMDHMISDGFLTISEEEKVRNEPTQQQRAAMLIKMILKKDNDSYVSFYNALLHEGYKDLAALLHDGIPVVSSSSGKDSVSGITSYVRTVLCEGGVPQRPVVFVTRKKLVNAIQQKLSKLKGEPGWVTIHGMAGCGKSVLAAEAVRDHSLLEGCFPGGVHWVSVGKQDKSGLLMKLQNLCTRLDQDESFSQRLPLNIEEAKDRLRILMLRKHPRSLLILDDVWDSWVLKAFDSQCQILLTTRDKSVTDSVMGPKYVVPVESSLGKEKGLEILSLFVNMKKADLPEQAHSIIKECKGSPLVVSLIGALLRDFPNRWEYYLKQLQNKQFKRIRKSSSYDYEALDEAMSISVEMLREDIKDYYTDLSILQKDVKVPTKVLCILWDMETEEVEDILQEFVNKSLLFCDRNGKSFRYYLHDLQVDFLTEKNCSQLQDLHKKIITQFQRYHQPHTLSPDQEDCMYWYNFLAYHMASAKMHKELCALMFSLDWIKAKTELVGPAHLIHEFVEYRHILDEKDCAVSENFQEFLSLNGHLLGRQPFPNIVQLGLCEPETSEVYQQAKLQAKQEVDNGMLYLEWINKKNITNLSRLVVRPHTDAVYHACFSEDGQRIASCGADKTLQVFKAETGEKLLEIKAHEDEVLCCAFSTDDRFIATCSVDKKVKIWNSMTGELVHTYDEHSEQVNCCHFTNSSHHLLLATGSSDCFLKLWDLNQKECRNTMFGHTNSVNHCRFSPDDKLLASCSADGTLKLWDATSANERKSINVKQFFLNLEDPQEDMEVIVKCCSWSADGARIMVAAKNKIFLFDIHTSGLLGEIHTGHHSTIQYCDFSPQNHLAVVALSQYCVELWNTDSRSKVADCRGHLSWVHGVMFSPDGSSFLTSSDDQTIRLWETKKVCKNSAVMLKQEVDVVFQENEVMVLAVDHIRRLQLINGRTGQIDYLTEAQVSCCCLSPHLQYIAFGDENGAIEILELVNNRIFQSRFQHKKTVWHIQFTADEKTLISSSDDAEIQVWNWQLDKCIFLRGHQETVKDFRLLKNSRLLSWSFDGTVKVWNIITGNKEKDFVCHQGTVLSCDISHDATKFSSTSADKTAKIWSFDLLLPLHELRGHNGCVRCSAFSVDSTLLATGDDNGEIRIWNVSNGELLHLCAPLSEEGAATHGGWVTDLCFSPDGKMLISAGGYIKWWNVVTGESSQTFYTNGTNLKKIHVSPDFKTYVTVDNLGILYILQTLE

[3] = target: 1-phosphatidylinositol 4,5-bisphosphate phosphodiesterase beta-3 (Homo sapiens, UniProt Q01970); assay: Fluorescence-based biochemical high throughput dose response assay to identify inhibitors of phospholipase C isozymes (PLC-B3).
[4] = target: C-C chemokine receptor type 6 (Homo sapiens, UniProt P51684); assay: antagonism of CCR6 beta-arrestin recruitment – cell-based, luminescent beta-arrestin readout, dose response (AID 504728); type: functional
[5] = viability loss in THP-1 monocytes – THP-1 cells, cytotoxicity control for Vif-APOBEC3G degradation inhibitor project, dose response (AID 1117359); type: functional; conditions: THP-1
Beta-galactosidase = Beta-galactosidase (Escherichia coli, UniProt Q8VNN2); assay: detection-enzyme interference by beta-gal modulators – biochemical, E. coli enzyme, set 3, artefact control for CCR6 antagonist project, dose response (AID 504712); type: functional
Caspase-3 = target: T2, Caspase-3 (Homo sapiens, UniProt P42574); assay: activation of caspase-3 zymogen – biochemical, absorbance, dose response (AID 489014)
T2 sequence (P42574 whole entry): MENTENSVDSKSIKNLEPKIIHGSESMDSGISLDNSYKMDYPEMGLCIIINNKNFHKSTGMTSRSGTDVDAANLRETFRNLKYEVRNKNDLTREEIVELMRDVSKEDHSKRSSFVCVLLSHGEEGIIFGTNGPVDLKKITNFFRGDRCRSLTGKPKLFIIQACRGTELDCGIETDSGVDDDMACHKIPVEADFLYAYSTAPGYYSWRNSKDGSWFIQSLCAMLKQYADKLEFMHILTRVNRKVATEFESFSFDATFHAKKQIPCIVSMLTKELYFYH

Caspase-7 = Caspase-7 (Homo sapiens, UniProt P55210); assay: activation of caspase-7 zymogen – biochemical, absorbance, counter-screen for procaspase-3 activator project, dose response (AID 489013)
Troponin, cardiac muscle = Troponin, cardiac muscle (Homo sapiens, UniProt P19429+P45379+P63316); assay: compounds desensitizing RTF to calcium – biochemical, fluorescence, cardiac regulated thin filaments, triplicate IC50, dose response (AID 504742); type: protein-complex assay
[6] = target: T3, Histone-lysine N-methyltransferase NSD2 (Homo sapiens, UniProt O96028); type: biochemical
T3 sequence (O96028 whole entry): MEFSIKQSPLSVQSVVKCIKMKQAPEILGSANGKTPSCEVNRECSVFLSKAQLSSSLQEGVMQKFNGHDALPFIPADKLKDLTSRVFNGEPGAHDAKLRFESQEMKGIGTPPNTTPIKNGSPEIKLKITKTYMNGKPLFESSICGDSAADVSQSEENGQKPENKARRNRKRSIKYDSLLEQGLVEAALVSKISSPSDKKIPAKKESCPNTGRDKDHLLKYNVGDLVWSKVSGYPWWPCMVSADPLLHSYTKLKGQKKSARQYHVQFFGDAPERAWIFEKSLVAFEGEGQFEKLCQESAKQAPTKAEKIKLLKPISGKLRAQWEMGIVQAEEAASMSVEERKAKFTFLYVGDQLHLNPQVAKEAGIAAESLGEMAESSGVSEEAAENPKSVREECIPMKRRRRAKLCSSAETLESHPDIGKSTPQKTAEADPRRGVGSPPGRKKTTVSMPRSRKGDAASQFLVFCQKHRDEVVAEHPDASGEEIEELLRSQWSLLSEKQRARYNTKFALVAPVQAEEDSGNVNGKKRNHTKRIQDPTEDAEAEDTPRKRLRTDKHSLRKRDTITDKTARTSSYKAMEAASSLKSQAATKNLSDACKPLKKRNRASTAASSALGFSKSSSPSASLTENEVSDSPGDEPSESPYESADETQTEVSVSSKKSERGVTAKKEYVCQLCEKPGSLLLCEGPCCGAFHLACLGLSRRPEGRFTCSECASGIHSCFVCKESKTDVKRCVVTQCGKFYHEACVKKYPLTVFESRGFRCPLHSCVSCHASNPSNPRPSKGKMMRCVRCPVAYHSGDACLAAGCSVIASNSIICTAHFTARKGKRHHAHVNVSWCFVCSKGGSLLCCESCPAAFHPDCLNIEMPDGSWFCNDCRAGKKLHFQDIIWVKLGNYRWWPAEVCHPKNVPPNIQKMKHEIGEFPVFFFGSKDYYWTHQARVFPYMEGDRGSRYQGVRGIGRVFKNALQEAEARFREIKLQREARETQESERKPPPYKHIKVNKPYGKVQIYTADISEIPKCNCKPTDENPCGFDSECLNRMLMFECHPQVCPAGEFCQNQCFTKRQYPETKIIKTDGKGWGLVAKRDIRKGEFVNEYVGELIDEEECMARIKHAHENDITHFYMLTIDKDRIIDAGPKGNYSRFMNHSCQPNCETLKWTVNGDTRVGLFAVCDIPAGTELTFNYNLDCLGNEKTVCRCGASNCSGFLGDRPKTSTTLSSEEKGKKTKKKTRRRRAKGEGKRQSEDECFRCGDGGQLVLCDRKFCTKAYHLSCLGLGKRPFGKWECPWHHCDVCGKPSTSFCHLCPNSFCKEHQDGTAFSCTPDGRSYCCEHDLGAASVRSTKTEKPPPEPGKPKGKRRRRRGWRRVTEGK

[7] = target: Delta-type opioid receptor (Homo sapiens, UniProt P41143); assay: SAR Analysis of Antagonists of the DOR Receptor using an Image-Based Assay - Set 3. [Related pubchem assays (depositor defined):AID1777, AID1785]; type: functional;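 further: U2OS cells expressing DOR1 and beta-arrestin GFP stimulated with 100 nM SNC80; imaging of GFP-tagged beta-arrestin moving into spots after receptor activation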
Mu-type opioid receptor = Mu-type opioid receptor (Homo sapiens, UniProt P35372); assay: SAR Analysis of Antagonists of the MOR Receptor using an Image-Based Assay - Set 3. [Related pubchem assays (depositor defined):AID1777, AID1785, AID1786, AID1966, AID2133, AID2136, AID2284, AID2285, AID2420]; type: functional
[8] = target: T4, Kappa-type opioid receptor (Homo sapiens, UniProt P41145); assay: SAR analysis of small molecule antagonists of the kappa opioid receptor via a luminescent beta-arrestin assay - Set 4. [Related pubchem assays (depositor defined):AID1777, AID1778, AID1785, AID1786, AID1966, AID2133, AID2136, AID2285]; type: functional
[9] = target: T4, Kappa-type opioid receptor; assay: SAR analysis of Antagonists of the Kappa Opioid Receptor (KOR) using an Image-Based Assay - Set 4. [Related pubchem assays (depositor defined):AID1777, AID1785]; type: functional
[10] = target: T4, Kappa-type opioid receptor; assay: SAR analysis of small molecule antagonists of the kappa opioid receptor via a luminescent beta-arrestin assay - Set 6. [Related pubchem assays (depositor defined):AID1777, AID1778, AID1785, AID1786, AID1966, AID2133, AID2136, AID2285]; type: functional
[11] = target: DNA dC->dU-editing enzyme APOBEC-3A (Homo sapiens, UniProt P31941); assay: A3A deaminase inhibition for selectivity – biochemical, dose response (AID 504722); type: functional
[12] = target: DNA dC->dU-editing enzyme APOBEC-3G (Homo sapiens, UniProt Q9HC16); assay: Dose Response confirmation of small molecule APOBEC3G DNA Deaminase Inhibitors via a fluorescence-based single-stranded DNA deaminase assay. [Related pubchem assays (depositor defined):AID493012, AID493028]; type: functional
[13] = tested on: Streptococcus sp. 'group A'; assay: Streptococcus pyogenes SK(-)GAS viability under kanamycin – luminescence, BacTiterGlo, confirmation, counter-screen for streptokinase expression inhibitor project, dose response (AID 1900); type: functional, organism-based
Streptococcus = assay: GAS UMAA2166 growth inhibition – luminescence, BacTiterGlo, counter-screen for streptokinase expression inhibitor project, dose response (AID 1915); type: functional, organism-based;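 further: potency for reduction of bacterial viability or growth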
Streptokinase A = target: T5, Streptokinase A (Streptococcus pyogenes serotype M1, UniProt P10520); assay: viability-normalized secreted streptokinase activity reduction – plasminogen activation absorbance, OD405, dose response (AID 1914); type: functional, Streptococcus pyogenes M1 GAS;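 further: secreted streptokinase activity via plasminogen activation per viability signal from cell pellet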
T5 sequence (P10520 whole entry): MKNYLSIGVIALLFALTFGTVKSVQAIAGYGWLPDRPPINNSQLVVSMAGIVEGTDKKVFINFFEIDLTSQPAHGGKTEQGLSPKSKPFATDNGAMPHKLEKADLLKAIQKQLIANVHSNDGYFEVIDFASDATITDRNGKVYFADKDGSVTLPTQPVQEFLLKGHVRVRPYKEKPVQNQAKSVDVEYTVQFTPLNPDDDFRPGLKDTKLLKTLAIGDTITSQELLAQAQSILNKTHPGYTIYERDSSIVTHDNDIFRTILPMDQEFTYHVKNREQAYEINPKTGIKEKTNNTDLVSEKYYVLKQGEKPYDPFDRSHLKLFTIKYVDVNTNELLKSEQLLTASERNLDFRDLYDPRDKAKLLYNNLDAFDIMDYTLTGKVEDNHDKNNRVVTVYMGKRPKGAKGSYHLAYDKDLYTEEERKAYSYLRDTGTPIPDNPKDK

T4 sequence (P41145 whole entry): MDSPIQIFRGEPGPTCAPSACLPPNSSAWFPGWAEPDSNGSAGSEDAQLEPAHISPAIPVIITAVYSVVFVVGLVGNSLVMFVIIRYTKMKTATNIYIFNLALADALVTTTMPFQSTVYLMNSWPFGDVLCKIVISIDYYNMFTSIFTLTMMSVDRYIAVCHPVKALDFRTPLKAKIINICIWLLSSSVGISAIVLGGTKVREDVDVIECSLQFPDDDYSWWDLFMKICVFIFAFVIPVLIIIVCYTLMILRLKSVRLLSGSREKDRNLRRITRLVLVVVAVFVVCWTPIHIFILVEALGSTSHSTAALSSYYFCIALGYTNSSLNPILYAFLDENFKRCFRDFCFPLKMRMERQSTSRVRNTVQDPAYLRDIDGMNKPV
Sequence of Mu-type opioid receptor (P35372 whole entry): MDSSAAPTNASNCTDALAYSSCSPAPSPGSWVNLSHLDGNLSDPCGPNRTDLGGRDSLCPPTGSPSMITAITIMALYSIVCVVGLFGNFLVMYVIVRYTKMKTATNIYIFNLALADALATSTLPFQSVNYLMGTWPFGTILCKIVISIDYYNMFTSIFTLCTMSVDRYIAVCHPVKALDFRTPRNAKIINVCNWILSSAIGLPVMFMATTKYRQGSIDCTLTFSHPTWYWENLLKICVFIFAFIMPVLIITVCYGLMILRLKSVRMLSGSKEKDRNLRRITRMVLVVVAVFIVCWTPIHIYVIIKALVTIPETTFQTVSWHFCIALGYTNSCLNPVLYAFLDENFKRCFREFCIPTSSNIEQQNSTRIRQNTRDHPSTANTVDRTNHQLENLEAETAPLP
Sequence of DNA dC->dU-editing enzyme APOBEC-3G (Q9HC16 whole entry): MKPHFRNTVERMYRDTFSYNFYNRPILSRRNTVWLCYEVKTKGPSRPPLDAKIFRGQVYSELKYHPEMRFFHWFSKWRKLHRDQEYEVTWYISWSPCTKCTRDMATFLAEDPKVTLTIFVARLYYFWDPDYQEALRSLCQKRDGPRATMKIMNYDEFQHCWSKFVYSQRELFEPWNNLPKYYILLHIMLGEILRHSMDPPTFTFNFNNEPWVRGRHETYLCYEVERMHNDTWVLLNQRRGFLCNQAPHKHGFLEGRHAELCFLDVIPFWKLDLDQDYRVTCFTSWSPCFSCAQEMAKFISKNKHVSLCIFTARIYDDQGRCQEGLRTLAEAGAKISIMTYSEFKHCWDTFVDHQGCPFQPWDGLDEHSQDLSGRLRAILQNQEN
Sequence of Delta-type opioid receptor (P41143 whole entry): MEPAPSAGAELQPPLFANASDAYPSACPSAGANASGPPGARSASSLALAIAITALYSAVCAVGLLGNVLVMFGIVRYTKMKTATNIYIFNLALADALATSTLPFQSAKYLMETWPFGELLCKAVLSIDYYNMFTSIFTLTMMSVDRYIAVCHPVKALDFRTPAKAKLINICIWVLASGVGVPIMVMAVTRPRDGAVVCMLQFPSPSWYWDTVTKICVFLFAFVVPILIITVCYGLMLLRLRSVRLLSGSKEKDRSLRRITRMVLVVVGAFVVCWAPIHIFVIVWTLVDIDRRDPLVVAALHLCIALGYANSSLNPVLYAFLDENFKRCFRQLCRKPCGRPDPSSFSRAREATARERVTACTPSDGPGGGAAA
Sequence of Caspase-7 (P55210 24-198 limits assumed): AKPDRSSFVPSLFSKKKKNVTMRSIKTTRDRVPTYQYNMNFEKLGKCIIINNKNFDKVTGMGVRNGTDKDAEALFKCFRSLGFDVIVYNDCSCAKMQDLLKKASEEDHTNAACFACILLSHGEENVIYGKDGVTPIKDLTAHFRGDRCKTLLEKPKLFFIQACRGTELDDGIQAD
Sequence of Caspase-7 (P55210 207-303 limits assumed): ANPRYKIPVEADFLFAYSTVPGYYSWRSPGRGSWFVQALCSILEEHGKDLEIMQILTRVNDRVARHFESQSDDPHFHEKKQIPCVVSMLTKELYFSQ
Sequence of C-C chemokine receptor type 6 (P51684 whole entry): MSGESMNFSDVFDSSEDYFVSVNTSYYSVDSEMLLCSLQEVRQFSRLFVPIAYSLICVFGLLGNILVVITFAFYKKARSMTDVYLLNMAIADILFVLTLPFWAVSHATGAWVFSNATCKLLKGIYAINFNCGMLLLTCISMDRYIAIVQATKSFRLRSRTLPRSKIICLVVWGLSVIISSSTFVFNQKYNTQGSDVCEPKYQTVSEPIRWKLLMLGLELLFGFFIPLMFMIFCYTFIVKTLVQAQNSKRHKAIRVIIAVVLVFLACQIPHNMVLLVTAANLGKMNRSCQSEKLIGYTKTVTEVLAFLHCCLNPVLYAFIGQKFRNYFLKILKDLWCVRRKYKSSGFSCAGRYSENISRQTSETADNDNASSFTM
Sequence of 1-phosphatidylinositol 4,5-bisphosphate phosphodiesterase gamma-1 (P19174 whole entry): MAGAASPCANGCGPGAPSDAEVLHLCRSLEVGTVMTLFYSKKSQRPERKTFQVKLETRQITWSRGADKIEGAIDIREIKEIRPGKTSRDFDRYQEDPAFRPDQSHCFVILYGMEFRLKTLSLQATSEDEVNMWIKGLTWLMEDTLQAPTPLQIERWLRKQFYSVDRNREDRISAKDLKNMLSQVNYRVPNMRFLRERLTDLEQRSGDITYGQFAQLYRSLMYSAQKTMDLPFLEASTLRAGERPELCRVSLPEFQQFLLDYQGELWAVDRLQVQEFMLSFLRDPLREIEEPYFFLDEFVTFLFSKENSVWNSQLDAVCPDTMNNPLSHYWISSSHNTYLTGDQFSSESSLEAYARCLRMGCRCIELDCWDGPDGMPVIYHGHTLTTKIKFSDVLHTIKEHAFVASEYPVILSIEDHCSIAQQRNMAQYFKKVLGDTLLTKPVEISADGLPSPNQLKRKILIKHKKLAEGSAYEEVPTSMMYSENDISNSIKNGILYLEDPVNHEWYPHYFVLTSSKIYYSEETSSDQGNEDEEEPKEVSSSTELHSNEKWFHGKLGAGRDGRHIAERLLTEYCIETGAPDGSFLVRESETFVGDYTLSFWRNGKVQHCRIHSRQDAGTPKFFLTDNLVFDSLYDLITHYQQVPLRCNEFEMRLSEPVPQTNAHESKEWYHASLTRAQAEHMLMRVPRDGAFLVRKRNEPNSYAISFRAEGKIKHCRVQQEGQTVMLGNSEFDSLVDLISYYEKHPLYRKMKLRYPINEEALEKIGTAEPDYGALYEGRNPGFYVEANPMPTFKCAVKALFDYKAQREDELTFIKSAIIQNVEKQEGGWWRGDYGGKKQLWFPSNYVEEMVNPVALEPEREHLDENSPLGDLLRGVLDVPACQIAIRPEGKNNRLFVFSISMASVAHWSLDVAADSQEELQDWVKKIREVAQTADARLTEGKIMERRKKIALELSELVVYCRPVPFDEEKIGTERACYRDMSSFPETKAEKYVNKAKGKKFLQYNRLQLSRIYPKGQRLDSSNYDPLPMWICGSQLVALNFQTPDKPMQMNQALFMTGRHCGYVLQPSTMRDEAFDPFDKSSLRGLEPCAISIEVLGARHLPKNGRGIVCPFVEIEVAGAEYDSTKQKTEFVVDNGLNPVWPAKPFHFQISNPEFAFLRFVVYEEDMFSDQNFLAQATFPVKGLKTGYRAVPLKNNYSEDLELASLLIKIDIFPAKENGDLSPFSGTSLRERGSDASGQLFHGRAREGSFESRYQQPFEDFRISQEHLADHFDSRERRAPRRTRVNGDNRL
Sequence of Beta-galactosidase (Q8VNN2 whole entry): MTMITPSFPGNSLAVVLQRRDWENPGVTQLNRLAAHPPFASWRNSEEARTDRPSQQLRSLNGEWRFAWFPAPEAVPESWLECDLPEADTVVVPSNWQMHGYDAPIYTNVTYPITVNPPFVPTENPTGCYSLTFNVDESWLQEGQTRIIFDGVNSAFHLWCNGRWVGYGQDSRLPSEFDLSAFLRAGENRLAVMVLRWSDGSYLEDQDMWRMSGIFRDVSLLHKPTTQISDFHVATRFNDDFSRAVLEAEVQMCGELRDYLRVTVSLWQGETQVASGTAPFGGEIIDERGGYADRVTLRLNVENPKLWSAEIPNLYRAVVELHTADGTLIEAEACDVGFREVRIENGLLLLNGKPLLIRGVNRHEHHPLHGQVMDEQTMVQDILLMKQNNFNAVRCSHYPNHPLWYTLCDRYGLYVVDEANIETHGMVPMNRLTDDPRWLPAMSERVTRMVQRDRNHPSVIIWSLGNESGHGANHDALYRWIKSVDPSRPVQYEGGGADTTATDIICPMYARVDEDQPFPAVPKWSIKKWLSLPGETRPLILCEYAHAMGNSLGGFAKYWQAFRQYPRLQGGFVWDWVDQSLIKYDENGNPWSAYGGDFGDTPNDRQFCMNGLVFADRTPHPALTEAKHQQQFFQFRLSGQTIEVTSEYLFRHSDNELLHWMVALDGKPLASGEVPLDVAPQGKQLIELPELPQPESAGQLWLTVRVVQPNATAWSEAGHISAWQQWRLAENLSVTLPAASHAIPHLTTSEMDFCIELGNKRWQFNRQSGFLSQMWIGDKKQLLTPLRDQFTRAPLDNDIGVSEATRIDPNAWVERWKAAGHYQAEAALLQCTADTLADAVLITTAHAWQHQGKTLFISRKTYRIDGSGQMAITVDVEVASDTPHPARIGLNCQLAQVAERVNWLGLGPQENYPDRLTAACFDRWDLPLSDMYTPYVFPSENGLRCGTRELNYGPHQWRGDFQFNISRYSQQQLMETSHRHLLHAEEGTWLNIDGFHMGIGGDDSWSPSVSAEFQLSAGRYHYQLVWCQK
Sequence of DNA dC->dU-editing enzyme APOBEC-3A (P31941 whole entry): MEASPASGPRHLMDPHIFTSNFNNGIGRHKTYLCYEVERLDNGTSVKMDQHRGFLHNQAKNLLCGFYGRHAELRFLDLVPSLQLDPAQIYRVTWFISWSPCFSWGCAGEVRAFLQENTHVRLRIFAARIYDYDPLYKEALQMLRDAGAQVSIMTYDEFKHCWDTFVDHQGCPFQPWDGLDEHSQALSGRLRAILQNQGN

**Q.** Which IC50 [1] does the source give for `FC(F)(F)C1=Nc2cccc3cccc(c23)N1` here?
**A.** 56.6 µM (inactive)

**Q.** What about the IC50 [2] of the same compound?
**A.** 12.1 µM (active)

**Q.** And the IC50 [3]?
**A.** 102 µM (inactive)

**Q.** What about the IC50 [4] of the same compound?
**A.** 23.8 µM (inactive)

**Q.** What about the CC50 [5] of the same compound?
**A.** 11.5 µM (active)

**Q.** And the IC50 (Beta-galactosidase)?
**A.** > 66.6 µM (inactive)

**Q.** What does the source list for `Cc1ccc(C2Nc3ccc4ccccc4c3C3=C2C(=O)CC(C)(C)C3)o1` (stereo not given)?
**A.** EC50 (Caspase-3): > 85.3 µM (inactive); EC50 (Caspase-7): > 85.3 µM (inactive)

**Q.** What does the source list for `CCOc1ccc2nc3cc(N=Nc4ccc(N)nc4N)ccc3c(N)c2c1`?
**A.** IC50 (Troponin, cardiac muscle): 12.7 µM (inactive); AC50 [6]: > 20 µM (inactive)

**Q.** Which IC50 [7] does the source give for `Cc1ccc(S(=O)(=O)NCc2ccc(C(=O)NCCN(Cc3ccccc3)C(C)(C)C)cc2)cc1` here?
**A.** > 32 µM (inactive)

**Q.** And the IC50 (Mu-type opioid receptor)?
**A.** 1.39 µM (active)

**Q.** And the IC50 [8]?
**A.** 76.3 nM (active)

**Q.** And the IC50 [9]?
**A.** 28.7 nM (active)

**Q.** What about the IC50 [10] of the same compound?
**A.** 53.5 nM (active)

**Q.** Which IC50 [11] does the source give for `COc1ccc(OC)c(/C=N/n2c(S)nnc2-c2[nH]nc3c2CCC3)c1` here?
**A.** > 100 µM (inactive)

**Q.** What about the IC50 [12] of the same compound?
**A.** 2.88 µM (active)

**Q.** And the EC50 [13]?
**A.** > 150 µM (not active)

**Q.** What about the EC50 (Streptococcus) of the same compound?
**A.** > 150 µM (not active)

**Q.** What about the EC50 (Streptokinase A) of the same compound?
**A.** 18.9 µM (inconclusive)
